From paper PMC8286840, “Identifying SARS-CoV-2 antiviral compounds by screening for small molecule inhibitors of Nsp3 papain-like protease” (Biochemical Journal, 2021) come the findings set out here.

Counter-ions that a name gives are not always drawn. Like-named read-outs stand apart in the source and are kept apart here.

Assay [1] has as its target T1, SARS-CoV-2 PLpro (nsp3 1564–1878) (Severe acute respiratory syndrome coronavirus 2, UniProt P0DTD1). The assay is described as follows: biochemical. The note with it: high concentration screen, read-out: % of control remaining. Also noted: FRET-quenched peptide (Pro3) cleavage by PLpro, 10 min pre-incubation, slope over 20 min, normalised to no-compound control.
The target in assay [2] is T1, SARS-CoV-2 PLpro (nsp3 1564–1878). The assay is described as follows: biochemical. The note with it: low concentration screen, read-out: % of control remaining. Also on record: FRET-quenched peptide (Pro3) cleavage by PLpro, 10 min pre-incubation, slope over 20 min, normalised to no-compound control.

With `CC(=O)Nc1nc(C)c(S(=O)(=O)Nc2ccc(C(O)(C(F)(F)F)C(F)(F)F)cc2)s1` [SR1001], the remaining activity at 3.75 µM in assay [1] (Well no.=5461) turned out to be 111%; in assay [1] (Well no.=8467) it was 106%. Moreover, in assay [2] (Well no.=8467), the remaining activity at 1.25 µM came out at 106%.

On to `OC[C@@H]1[C@@H](O)[C@H](O)[C@H]2[C@@H](O)CCN21`, for which the remaining activity at 3.75 µM in assay [1] (Well no.=3085) was found to be 105%. Besides, in assay [2] (Well no.=3085), the remaining activity at 1.25 µM is 104%.

With `C[C@H]1CN(C[C@H](Cc2ccccc2)C(=O)NCC(=O)O)CC[C@@]1(C)c1cccc(O)c1` [Alvimopan (dihydrate)], in assay [1] (Well no.=6559), the remaining activity at 3.75 µM is 101%. Moreover, the remaining activity at 1.25 µM in assay [2] (Well no.=6559) was 100%.

For the compound `COC1=CC(=O)C[C@@H](C)[C@]12Oc1c(Cl)c(OC)cc(OC)c1C2=O` [(+)-Griseofulvin], the remaining activity at 3.75 µM in assay [1] (Well no.=3354) amounted to 90.2%. Further, the remaining activity at 1.25 µM in assay [2] (Well no.=3354) was 88.9%.

Take `NCCc1c[nH]c2ccc(O)cc12` [Serotonin hydrochloride]: the remaining activity at 3.75 µM in assay [1] (Well no.=616) was found to be 100%. Further, the remaining activity at 1.25 µM in assay [2] (Well no.=616) stood at 98.2%.

With `CCCCS(=N)(=O)CCC(N)C(=O)O` (stereo not drawn) [Buthionine sulfoximine], the remaining activity at 3.75 µM in assay [1] (Well no.=4086) turned out to be 100%. Besides, the remaining activity at 1.25 µM in assay [2] (Well no.=4086) came out at 101%.

As for `C=C[C@@](C)(/C=C/c1ccc(O)cc1)CCC=C(C)C` [Bakuchiol], the remaining activity at 3.75 µM in assay [1] (Well no.=3520) stood at 101%; in assay [1] (Well no.=4001), 97.7%. Further, the remaining activity at 1.25 µM in assay [2] (Well no.=4001) came to 101%.

Turning to `OCCN1CCN(CCCN2c3ccccc3C=Cc3ccccc32)CC1` [Opipramol dihydrochloride], the remaining activity at 3.75 µM in assay [1] (Well no.=5510) worked out at 101%. For the same compound, in assay [2] (Well no.=5510), the remaining activity at 1.25 µM was 97.5%.

For the compound `O=C(O)C1CCCN(CCC=C(c2ccccc2)c2ccccc2)C1` (stereo not drawn) [SKF 89976A hydrochloride], the remaining activity at 3.75 µM in assay [1] (Well no.=1323) turned out to be 102%. In addition, in assay [2] (Well no.=1323), the remaining activity at 1.25 µM turned out to be 99.7%.

As to `CC(=O)O/N=C1/C(c2c(O)[nH]c3cc(Br)ccc23)=Nc2ccccc21` [BIO-Acetoxime], the remaining activity at 3.75 µM in assay [1] (Well no.=5822) was 93.6%. In addition, the remaining activity at 1.25 µM in assay [2] (Well no.=5822) was determined as 96%.

In the case of `Cc1ccc(-c2n[nH]c3c2C(c2cccc(O)c2)N(c2ccc(C(=O)O)cc2)C3=O)cc1` (stereo not drawn) [4-(4-(3-hydroxyphenyl)-3-(4-methylphenyl)-6-oxo-4,6-dihydropyrrolo[3,4-c]pyrazol-5(1H)-yl)benzoic acid], the remaining activity at 3.75 µM in assay [1] (Well no.=5969) was 97.4%. Besides, the remaining activity at 1.25 µM in assay [2] (Well no.=5969) was determined as 100%.

With `O=c1cc(-c2ccc(O)c(O)c2)oc2cc(O)cc(O)c12` [Luteolin], the remaining activity at 3.75 µM came out at 102% in assay [1] (Well no.=837) and 98.3% in assay [1] (Well no.=3318). The values for the remaining activity at 1.25 µM in assay [2] (Well no.=837) and in assay [2] (Well no.=3318) were 96.9% and 97.2%, respectively.

As for `C#Cc1cccc(Nc2ncnc3cc(OC)c(OCCCCCCC(=O)NO)cc23)c1` [CUDC-101], in assay [1] (Well no.=5097), the remaining activity at 3.75 µM worked out at 108%. The remaining activity at 1.25 µM in assay [2] (Well no.=5097) was determined as 104%.

As for `CC1CNCCN1S(=O)(=O)c1cccc2cnccc12` (stereo not drawn) [1-(5-Isoquinolinylsulfonyl)-2-methylpiperazine dihydrochloride], the remaining activity at 3.75 µM in assay [1] (Well no.=965) was 103%. Also, in assay [2] (Well no.=965), the remaining activity at 1.25 µM stood at 104%.

On to `O=C(NC(NC(=S)Nc1ccc(F)c([N+](=O)[O-])c1)C(Cl)(Cl)Cl)C(c1ccccc1)c1ccccc1` (stereo not drawn) [ATM/ATR Kinase Inhibitor], for which, in assay [1] (Well no.=2312), the remaining activity at 3.75 µM was found to be 98.3%. In addition, the remaining activity at 1.25 µM in assay [2] (Well no.=2312) stood at 98.2%.

For the compound `CCc1cccc2c1c(O)c(C(=O)N(CC)c1ccccc1)c(=O)n2C` [Paquinimod], in assay [1] (Well no.=8373), the remaining activity at 3.75 µM turned out to be 92.5%. Besides, the remaining activity at 1.25 µM in assay [2] (Well no.=8373) was determined as 92.6%.

Consider `COc1cc2ncnc(Nc3ccc(NC(=O)c4ccccc4)cc3)c2cc1OC` [Aurora Kinase Inhibitor II], for which the remaining activity at 3.75 µM in assay [1] (Well no.=2321) is 99.9%. The remaining activity at 1.25 µM in assay [2] (Well no.=2321) worked out at 99.4%.

Take `CS(=O)(=O)Nc1ccc(-c2coc3cc(OCc4cccc(C(=O)O)c4)ccc3c2=O)cc1` [CVT-10216]: in assay [1] (Well no.=5513), the remaining activity at 3.75 µM is 108%. For the same compound, the remaining activity at 1.25 µM in assay [2] (Well no.=5513) is 105%.

For the compound `CC(N)(C(=O)O)c1ccc(C(=O)O)cc1` (racemic) [(RS)-MCPG], in assay [1] (Well no.=8575), the remaining activity at 3.75 µM was found to be 102%. Further, the remaining activity at 1.25 µM in assay [2] (Well no.=8575) turned out to be 109%.

Regarding `Cc1o[nH]c(=O)c1CC(N)C(=O)O` (racemic), the remaining activity at 3.75 µM in assay [1] (Well no.=508) was found to be 100%. Besides, in assay [2] (Well no.=508), the remaining activity at 1.25 µM turned out to be 99.4%.

Turning to `CC1(C)S[C@@H]2[C@H](NC(=O)[C@H](N)c3ccc(O)cc3)C(=O)N2[C@H]1C(=O)O` [Amoxicillin (sodium)], the remaining activity at 3.75 µM in assay [1] (Well no.=8274) worked out at 89.9%. The remaining activity at 1.25 µM in assay [2] (Well no.=8274) worked out at 91.5%.

As to `C=C(C)[C@H]1CN[C@H](C(=O)O)[C@H]1CC(=O)O` [Kainic acid], the figures for the remaining activity at 3.75 µM in assay [1] (Well no.=829), in assay [1] (Well no.=3369) and in assay [1] (Well no.=7792) were 105%, 104% and 102%, respectively. The results for the remaining activity at 1.25 µM in assay [2] (Well no.=829) and in assay [2] (Well no.=7792) were 106% and 105%, respectively.

`NC(=O)c1ncn([C@@H]2O[C@H](CO)[C@@H](O)[C@H]2O)n1` [Ribavirin]: the remaining activity at 3.75 µM was found to be 97.1% in assay [1] (Well no.=1256) and 98.2% in assay [1] (Well no.=2199). Moreover, the values for the remaining activity at 1.25 µM in assay [2] (Well no.=1256) and in assay [2] (Well no.=2199) were 96.8% and 96.4%, respectively.

On to `CC(=O)c1c(C)c2cnc(Nc3ccc(N4CCNCC4)cn3)nc2n(C2CCCC2)c1=O` [Palbociclib (hydrochloride)], for which the remaining activity at 3.75 µM in assay [1] (Well no.=7350) is 97.5%. In addition, the remaining activity at 1.25 µM in assay [2] (Well no.=7350) was found to be 96.3%.

Turning to `O=C(CCc1ccc(O)cc1)c1c(O)cc(O)cc1O[C@@H]1O[C@H](CO)[C@@H](O)[C@H](O)[C@H]1O` [Phlorizine], the remaining activity at 3.75 µM in assay [1] (Well no.=3452) turned out to be 97.9%. Moreover, in assay [2] (Well no.=3452), the remaining activity at 1.25 µM is 94.2%.

`CC(=O)S[C@@H]1CC2=CC(=O)CC[C@]2(C)[C@H]2CC[C@@]3(C)[C@@H](CC[C@@]34CCC(=O)O4)[C@H]12` [Spironolactone]: the remaining activity at 3.75 µM in assay [1] (Well no.=1266) was found to be 93.5%; in assay [1] (Well no.=2253) it was 82.7%. The remaining activity at 1.25 µM in assay [2] (Well no.=1266) is 97.8%; in assay [2] (Well no.=2253), 93%.

Turning to `CC(=O)N[C@H]1[C@H]([C@H](O)[C@H](O)CO)OC(O)(C(=O)O)C[C@@H]1O` (stereo partly drawn) [N-Acetylneuraminic acid], in assay [1] (Well no.=6491), the remaining activity at 3.75 µM turned out to be 94.5%. Also, the remaining activity at 1.25 µM in assay [2] (Well no.=6491) is 92.4%.

As to `C[N+](C)(C)CCCCCCCCCC[N+](C)(C)C` [Decamethonium dibromide], the remaining activity at 3.75 µM in assay [1] (Well no.=683) was 95.4%. Also, in assay [2] (Well no.=683), the remaining activity at 1.25 µM was found to be 94%.

Consider `NC(CCCP(=O)(O)O)C(=O)O` (racemic), for which, in assay [1] (Well no.=65), the remaining activity at 3.75 µM was found to be 97.5%. For the same compound, the remaining activity at 1.25 µM in assay [2] (Well no.=65) was 103%.
